Results reported in PMC9412414, “A Study on Repositioning Nalidixic Acid via Lanthanide Complexation: Synthesis, Characterization, Cytotoxicity and DNA/Protein Binding Studies” (Pharmaceuticals, 2022).

How the values were obtained:
[1] = system: HUVEC (human umbilical vein endothelial cells); assay: MTS cytotoxicity assay, HUVEC normal cell line; format: cell-based; details: 24 h of incubation
Description: (§1) LoVo, MDA-MB-231 and HUVEC human cell lines were purchased from American Type Culture Collection (ATCC). Cells were routinely maintained in culture either in culture flasks or seeded in plates, using Dulbecco’s modified Eagle medium/nutrient mixture F-12 (DMEM:F12) medium supplemented with […], 10% fetal calf serum (Sigma Aldrich, St. Louis, MO, USA), 100 units/mL penicillin, 100 μg/mL streptomycin and incubated at 37 °C in 5% CO2 humidified atmosphere.
(§2) Cytotoxicity studies were performed in 96-well microtiter plates with flat bottoms (Falcon, Teterboro, NJ, USA) using the CellTiter 96 Aqueous One Solution Cell Proliferation Assay (Promega, Madison, WI, USA), an MTS-based colorimetric assay. Metabolically active cells have the ability to reduce MTS [3-(4,5-dimethylthiazol-2-yl)-5-(3-carboxymethoxyphenyl)-2-(4-sulfophenyl)-2H-tetrazolium, inner salt], a yellow tetrazolium salt, to a colored formazan that is soluble in the culture medium. Briefly, 15 × 10^3 cells per well were cultured in 100 µL culture medium. After 24 h, adherent cells were treated with different concentrations of the studied compounds, as well as adriamycin (Adr) and cisplatin (Cis-Pt), used as positive controls for 24 h and 48 h, respectively. Each well was then filled with 20 µL of reagent containing MTS and PES (phenazine ethosulfate, a cationic dye with excellent chemical stability that binds to MTS and produces a stable solution). The resulting formazan was determined using a Tecan GENios Spectrophotometer (Tecan US, Durham, NC, USA) by measuring the absorbance at λ = 492 nm after incubation for 4 h at 37 °C with moderate agitation every 15 min. The cytotoxicity tests were performed in triplicate, with results reported as mean values with standard deviations (SD). The cytotoxicity of DMSO was also investigated under the same conditions, and no harmful effect was found at doses less than 1%.
(§3) Data were expressed as cell viability by comparing with untreated cells considered 100% viable, using the following formula:(1) Cell viability (%)=absorbance of treated cells−absorbance of culture medium/absorbance of untreated cells−absorbance of culture medium

apotransferrin (apo-Tf) = biological target: T1, apotransferrin (apo-Tf) (Homo sapiens, UniProt P02787); assay: Apo-Tf fluorescence quenching binding study; details: for Kd: read-out: Kd (dissociation constant), Apo-Tf; for fa (fraction of fluorophore accessible to the quencher), Apo-Tf / Ksv* (Stern–Volmer quenching constant), Apo-Tf: compound 0–8 µM; for Ksv* (Stern–Volmer quenching constant), Apo-Tf: Tris-HCl pH 7.4, 298 K; for Kq (bimolecular quenching constant), Apo-Tf: from Ksv* with τ0 = 10^−8 s
T1 construct: purchased Sigma-Aldrich Chemical Co. (Schnelldorf, Germany)
T1 sequence (P02787 20-698): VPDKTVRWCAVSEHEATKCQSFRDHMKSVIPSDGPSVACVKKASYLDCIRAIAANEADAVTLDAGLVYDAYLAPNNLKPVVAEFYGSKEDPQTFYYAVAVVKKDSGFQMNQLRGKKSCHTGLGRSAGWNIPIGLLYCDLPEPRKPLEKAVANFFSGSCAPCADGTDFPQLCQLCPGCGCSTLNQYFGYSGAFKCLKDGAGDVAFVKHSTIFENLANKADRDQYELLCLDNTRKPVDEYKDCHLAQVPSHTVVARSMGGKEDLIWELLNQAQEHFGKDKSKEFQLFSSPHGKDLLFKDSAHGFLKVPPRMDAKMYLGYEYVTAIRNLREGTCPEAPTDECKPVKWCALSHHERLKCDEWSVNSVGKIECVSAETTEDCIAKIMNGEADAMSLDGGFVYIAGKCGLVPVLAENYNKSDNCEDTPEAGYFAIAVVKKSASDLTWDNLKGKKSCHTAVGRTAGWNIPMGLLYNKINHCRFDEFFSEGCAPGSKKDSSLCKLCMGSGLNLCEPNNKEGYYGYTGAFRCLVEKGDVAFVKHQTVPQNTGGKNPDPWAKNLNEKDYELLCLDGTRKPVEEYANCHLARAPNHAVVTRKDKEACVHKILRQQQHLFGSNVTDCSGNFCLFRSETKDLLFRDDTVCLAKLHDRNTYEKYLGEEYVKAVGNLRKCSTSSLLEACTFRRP
Description: (§4) Using a Jasco FP 6500 spectrofluorometer (Jasco, Tokyo, Japan) and quartz cells with a 1 cm path length, the fluorescence spectra of HSA and apo-Tf were recorded in the presence and absence of the examined substances. The 2.5 mL samples containing 2.5 µM HSA or 1 µM apo-Tf were titrated by adding 5 µL of the tested substance at a time, a volume that corresponded to a 1 µM increase in concentration. The concentration range used for these experiments varied from 0 to 8 µM. The relevant spectra were collected in the emission domains of 300–500 nm (HSA) and 305–500 nm (apo-Tf) after 3 min of continuous stirring at room temperature, using excitation wavelengths of 280 nm (HSA) and 295 nm (apo-Tf).
(§5) Experiments were conducted in a pH = 7.4 Tris-HCl buffer (5 mM Tris-HCl/50 mM NaCl for HSA and 5 mM Tris-HCl/50 mM NaCl/25 mM NaHCO3 for apo-Tf).
(§6) The following modified Stern–Volmer equation has been used to calculate the Stern–Volmer constant, which will be denoted as KSV* in order to differentiate it from the Stern–Volmer constant calculated for the DNA binding experiments:(5) F0/F0−F=1/faKsv*[Q]+1/fa where F0 and F are the fluorescence intensities in the absence and presence of the tested compounds, fa is the fraction of fluorophore accessible to the quencher (the tested compounds), [Q] is the quencher concentration, and KSV* (M^−1) is the Stern–Volmer constant; the plot of F0/(F0 − F) against 1/[Q] yields KSV as the slope and fa as the y intercept.
(§7) Subsequently, the bimolecular quenching rate constant was obtained by using Equation (6):(6) Ksv^*=Kqτ0
(§8) Kq (M^−1·s^−1) is the bimolecular quenching rate constant and τ0 is the fluorophore’s lifespan in the absence of the investigated chemicals (10^−8 s). The value of Kq can be used to assess whether the quenching phenomena have an underlying static or dynamic mechanism.
(§9) Using the following equation, the affinity constant (Ka) and the number of binding sites (n) have been calculated: (7) lgF0−F/F=lgKa+nlg[Q]
(§10) The binding affinity, Kd, can be calculated using the quadratic function below:(8) F0−F/F0−Fb=[P]t+[Q]+Kd−([P]t+[Q]+Kd)^2−4[P]t[Q]/2[P]t where F and F0 are the fluorescence intensities of the protein in the presence and absence of the quencher, respectively, Fb is the fluorescence of a fully bound protein–quencher, [P]t is the total concentration of the protein, and [Q] is the concentration of the added quencher. Each binding isotherm was plotted against the total quencher concentration in solution as a function of bound to free protein (F/F0).
(§11) The isotherms were then fitted using the nonlinear regression function below:(9) F/F0= F1+(F2−F1)Kdn/Kdn+[Q]^n where n represents the Hill coefficient, F1 and F2 are the horizontal and vertical asymptotes, respectively. The Kd in Equation (9) is derived from the quadratic binding function (Equation (8)).
(§12) Data were collected in triplicate, averaged, and expressed as mean value ± standard deviation (SD). All graph fitting models were defined and built using OriginPro® 2018.

[2] = system: LoVo (human colorectal adenocarcinoma) cell line; assay: MTS cytotoxicity assay, LoVo cell line; format: cell-based; details: 48 h of incubation
Description: as §1, §2, §3

[3] = biological target: T2, human serum albumin (HSA) (Homo sapiens, UniProt P02768); assay: HSA fluorescence quenching binding study; details: for Ka (association binding constant), HSA / n1 (Number of Binding Sites), HSA / n2 (Hill Coefficient), HSA / Kd / fa (fraction of fluorophore accessible to the quencher), HSA / Ksv* (Stern–Volmer quenching constant), HSA: HSA 2.5 µM; for Ka (association binding constant), HSA / n1 (Number of Binding Sites), HSA / n2 (Hill Coefficient), HSA / Kd / fa (fraction of fluorophore accessible to the quencher), HSA / Kq (bimolecular quenching constant), HSA: 298 K; for Kd: read-out: Kd (dissociation constant), HSA; for fa (fraction of fluorophore accessible to the quencher), HSA / Ksv* (Stern–Volmer quenching constant), HSA: compound 0–8 µM; for Ksv* (Stern–Volmer quenching constant), HSA: Tris-HCl pH 7.4, 298 K; for Kq (bimolecular quenching constant), HSA: from Ksv* with τ0 = 10^−8 s
T2 construct: purchased Sigma-Aldrich Chemical Co. (Schnelldorf, Germany)
T2 sequence (P02768 25-609): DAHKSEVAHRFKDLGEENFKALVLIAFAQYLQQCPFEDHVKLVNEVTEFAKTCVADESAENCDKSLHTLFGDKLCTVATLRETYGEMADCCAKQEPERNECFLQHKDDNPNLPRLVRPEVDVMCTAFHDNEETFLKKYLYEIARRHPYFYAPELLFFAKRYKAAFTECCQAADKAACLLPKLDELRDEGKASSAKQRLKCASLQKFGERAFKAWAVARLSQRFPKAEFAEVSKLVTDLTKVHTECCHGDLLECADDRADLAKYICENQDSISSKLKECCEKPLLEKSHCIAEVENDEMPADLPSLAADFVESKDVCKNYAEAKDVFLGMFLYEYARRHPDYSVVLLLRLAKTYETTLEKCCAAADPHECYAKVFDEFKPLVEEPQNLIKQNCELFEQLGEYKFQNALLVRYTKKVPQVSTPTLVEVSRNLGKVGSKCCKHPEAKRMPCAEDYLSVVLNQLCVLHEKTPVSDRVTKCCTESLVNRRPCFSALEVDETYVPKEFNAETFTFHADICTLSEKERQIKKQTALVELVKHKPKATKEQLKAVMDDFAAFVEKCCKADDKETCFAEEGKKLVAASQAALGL
Description: as §4, §5, §6, §7, §8, §9, §10, §11, §12

EB–DNA system (CT-DNA) = assay: Competitive binding assay with ethidium bromide (EB) through fluorescence spectroscopy; design: species or system calf; details: EB 2 µM, CT-DNA 10 µM, compound 0–40 µM
Description: The fluorescence spectra were recorded using 1.6 mL samples containing 10 µM CT-DNA, 2 µM EB, and increasing amounts (0–40 µM with an increment of 5 µM) of tested compounds; the samples were prepared by keeping the components in contact for 10 min at room temperature, under continuous stirring and in the dark. The excitation wavelength was 500 nm, and the spectra were recorded between the wavelengths of 520 and 800 nm. A Jasco FP 6500 fluorometer and quartz cells with a 1 cm route length were employed. The classical Stern–Volmer equation (Equation (3)) was used to interpret the obtained data:(3) F0/F=1+KSV·[Q] F0 and F are the fluorescence intensities of the EB–DNA samples in the absence and presence of the tested compounds, respectively; KSV is the Stern–Volmer constant, which was computed as the slope from the plot of F0/F vs. [Q], where [Q] is the chemical concentration.
The binding ratio was plotted against the logarithm of the concentration in comparison with a control sample exposed solely to DMSO. (4) y=A1+(A2−A1)×x^n/K50^n+x^n
For fitting data points, the modified Hill function with offset (Origin®) was used: where y represents the binding ratio (F/F0), x represents the concentration, A1 represents the minimum of y values, A2 represents the maximum of y values, K50 represents the concentration corresponding to 50% binding or the half maximum binding constant, and n represents the Hill coefficient.

| Structure (SMILES) | IC50 [1] [µM] | Ka (association binding constant), Apo-Tf (apotransferrin (apo-Tf); apo-Tf 1 µM, 298 K) | n1 (Number of Binding Sites), Apo-Tf (apotransferrin (apo-Tf); apo-Tf 1 µM, 298 K) | Kd (apotransferrin (apo-Tf); apo-Tf 1 µM, 298 K) [µM] | fa (fraction of fluorophore accessible to the quencher), Apo-Tf (apotransferrin (apo-Tf); apo-Tf 1 µM, 298 K) | Ksv* (Stern–Volmer quenching constant), Apo-Tf (apotransferrin (apo-Tf); apo-Tf 1 µM) | Kq (bimolecular quenching constant), Apo-Tf (apotransferrin (apo-Tf); 298 K) [M⁻¹ s⁻¹] | IC50 [2] [µM] | IC50 (μM) LoVo [2] | Ka (association binding constant), HSA [3] | n1 (Number of Binding Sites), HSA [3] | n2 (Hill Coefficient), HSA [3] | Kd [3] [µM] | fa (fraction of fluorophore accessible to the quencher), HSA [3] | Ksv* (Stern–Volmer quenching constant), HSA [3] | Kq (bimolecular quenching constant), HSA [3] [M⁻¹ s⁻¹] | EB Displacement Assay K50 (half maximum binding constant) (EB–DNA system (CT-DNA)) [µM] | KSV, Stern–Volmer quenching constant (EB–DNA) (EB–DNA system (CT-DNA)) | n2 (Hill Coefficient), Apo-Tf (apotransferrin (apo-Tf); apo-Tf 1 µM, 298 K) |
| --- | --- | --- | --- | --- | --- | --- | --- | --- | --- | --- | --- | --- | --- | --- | --- | --- | --- | --- | --- |
| CCn1cc(C(=O)[O-])c(=O)c2ccc(C)nc21.CCn1cc(C(=O)[O-])c(=O)c2ccc(C)nc21.O.[OH-].[Tb+3] [Tb(nal)2, Tb(C12H11N2O3)2(OH)(H2O)·1.5H2O] | > 200 | (0.32 ± 0.08) × 10^4 M^−1 | 0.71 ± 0.02 | 8.01 ± 4.3 | 0.65 ± 0.02 | (2.23 ± 0.15) × 10^5 M^−1 | 2.23e+13 | > 200 | not toxic | (11.52 ± 2.87) × 10^5 M^−1 | 1.12 ± 0.02 | 1.52 ± 0.09 | 3.99 ± 0.14 | 1.13 ± 0.02 | (1.92 ± 0.08) × 10^5 M^−1 | 1.92e+13 | 34.69 ± 11.18 | 9.14 ± 0.16 M^−1 (×10^3) |  |
| CCn1cc(C(=O)[O-])c(=O)c2ccc(C)nc21.CCn1cc(C(=O)[O-])c(=O)c2ccc(C)nc21.O.O.O.[La+3].[OH-] [La(nal)2, La(C12H11N2O3)2(OH)(H2O)·2H2O] | 114 ± 46.8 | (6.94 ± 2.32) × 10^4 M^−1 | 1.00 ± 0.03 | 5.43 ± 1.46 | 1.20 ± 0.49 | (0.44 ± 0.23) × 10^5 M^−1 | 4.4e+12 | 25.1 ± 9.11 |  | (9.03 ± 1.04) × 10^5 M^−1 | 1.09 ± 0.01 | 1.32 ± 0.11 | 3.35 ± 0.11 | 1.09 ± 0.02 | (1.09 ± 0.02) × 10^5 M^−1 | 1.09e+13 | 31.39 ± 13.66 | 8.90 ± 0.17 M^−1 (×10^3) | 1.82 ± 0.55 |
